Data on 4 molecules can be found in patent US7078195B2, “Antibiotics AA-896” (Wyeth Holdings Corporation, priority 2001, dated 2006).

Holding throughout (test): Broth dilution MIC
Format in all cases: cell-based
What all share (settings): Mueller-Hinton broth, 18 hours at 35° C.

In one test the test system is CNS GC 4537. The procedure: (§1) The in vitro antibacterial activity of AA-896-A1, AA-896-A2, AA-896-A3, AA-896-A4, AA-896-A5, AA-896-B1, AA-896-B2, AA-896-B3, AA-896-B4, AA-896-B5, AA-896-B6, AA-896-B7, AA-896-C1, AA-896-C2, AA-896-C3, AA-896-C4, AA-896-D1, AA896-D2 and AA-896-D3 is determined against a spectrum of Gram-positive and Gram-negative bacteria by a standard broth dilution method. Serial dilution of the compounds are made in Mueller-Hinton broth and inoculated with a bacterial suspension. The lowest concentration of compound that inhibited the growth of a bacterial strain after 18 hours of incubation at 35° C. is reported as the minimal inhibitory concentration (MIC) for that strain.

A further test has as its system CNS GC 4538. Here is the method: as §1
A further test relates to CNS GC 4547. The procedure:
as §1

The subject of another test is E. cloacae GC 3783. Here is the method:
as §1

A further test has as its system E. coli GC 2203. Here is the method: as §1
The subject of the next test is E. coli GC 3226. The procedure:
as §1

For a further test, the system named is E. coli GC 4559. The procedure: as §1
Another test deals with E. coli GC 4560. Here is the method:
as §1

The subject of another test is E. faecalis GC 242. The procedure:
as §1

Another test deals with E. faecalis GC 4555. Here is the method: as §1
The next test concerns E. faecalis GC 842. Here is the method: as §1
For the next test, the system named is K. pneumoniae GC 4534. The procedure:
as §1

For a further test, the system named is M. morganii GC 4531. Here is the method: as §1
For a further test, the system named is P. aeruginosa GC 2214. Here is the method:
as §1

A further test concerns P. aeruginosa GC 4532. Here is the method:
as §1

The next test concerns P. rettgeri GC 4530. The procedure:
as §1

Another test has as its system S. aureus GC 1131. Here is the method: as §1
A further test deals with S. aureus GC 2216. Here is the method: as §1
The test system of a further test is S. aureus GC 4536. The procedure:
as §1

For a further test, the system named is S. marcescens GC 4077. Here is the method: as §1

For `CC(C)C(NC(=O)NC(C(=O)NC(C(=O)NCCCNC(C(=O)O)C(O[C@@H]1O[C@H](CN)[C@@H](O)[C@H]1O)C1OC(n2ccc(=O)[nH]c2=O)C(O)C1O)C(O)C(C)C)C1CCNC(=N)N1)C(=O)O` (stereo partly drawn) [AA-896-C2, 5-O-[5-Amino-5-deoxy-β-D-ribofuranosyl]-6-[[3-[2-[2-[[(1-carboxy-2-methylpropyl)-carbamoyl]amino]-2-(hexahydro-2-iminopyrimidin-4-yl)acetamido]-3-hydroxy-4-methyl-pentanamido]propyl]amino]-1,6-dideoxy-1-(3,4-dihydro-2,4-dioxopyrimidin-1(2H)-yl)-β-D-heptofuranuronic acid], the “Antimicrobial Activity (MIC)” value in the test with CNS GC 4537 is >32 mg/L; with CNS GC 4538 it was >32 mg/L; in the test with CNS GC 4547, >32 mg/L; in the test on E. cloacae GC 3783, 16 mg/L; in the test on E. coli GC 2203, 16 mg/L; in the test on E. coli GC 3226, 16 mg/L. For the same molecule, the “Antimicrobial Activity (MIC)” value in the test on E. coli GC 4559 was >32 mg/L; with E. coli GC 4560, 2 mg/L; in the test on E. faecalis GC 242, >32 mg/L; in the test with E. faecalis GC 4555, >32 mg/L; in the test on E. faecalis GC 842 it was >32 mg/L; with K. pneumoniae GC 4534 it was >32 mg/L. Also, the “Antimicrobial Activity (MIC)” value is >32 mg/L in the test on M. morganii GC 4531; 32 mg/L in the test on P. aeruginosa GC 2214; 32 mg/L with P. aeruginosa GC 4532; >32 mg/L in the test with P. rettgeri GC 4530; >32 mg/L in the test on S. aureus GC 1131; >32 mg/L in the test on S. aureus GC 2216. Further, the “Antimicrobial Activity (MIC)” value in the test with S. aureus GC 4536 and with S. marcescens GC 4077 was >32 mg/L each time.
`CCC(C)CCCCC(=O)OC(C(C)C)C(NC(=O)C(NC(=O)NC(C(=O)O)C(C)C)C1CCNC(=N)N1)C(=O)NCCCNC(C(=O)O)C(O[C@@H]1O[C@H](CN)[C@@H](O)[C@H]1OC)C1OC(n2ccc(=O)[nH]c2=O)C(O)C1O` (stereo partly drawn) [AA-896-B3, 5-O-[5-Amino-5-deoxy-2-O-methyl-β-D-ribofuranosyl]-6-[[3-[2-[2-[[(1-carboxy-2-methyl-propyl)carbamoyl]amino]-2-(hexahydro-2-iminopyrimidin-4-yl)acetamido]-4-methyl-3-[(6-methyloctanoyl)oxy]pentanamido]propyl]amino]-1,6-dideoxy-1-(3,4-dihydro-2,4-dioxopyrimidin-1(2H)-yl)-β-D-heptofuranuronic acid]: the “Antimicrobial Activity (MIC)” value in the test with CNS GC 4537 was >32 mg/L; in the test on CNS GC 4538, >32 mg/L; with CNS GC 4547, >32 mg/L; with E. cloacae GC 3783, 16 mg/L; in the test with E. coli GC 2203, >32 mg/L; in the test with E. coli GC 3226 it was 32 mg/L. The “Antimicrobial Activity (MIC)” value with E. coli GC 4559 was >32 mg/L; in the test with E. coli GC 4560 it was 0.06 mg/L; with E. faecalis GC 242, >32 mg/L; in the test on E. faecalis GC 4555 it was >32 mg/L; in the test on E. faecalis GC 842, >32 mg/L; in the test on K. pneumoniae GC 4534 it was >32 mg/L. Besides, the “Antimicrobial Activity (MIC)” value in the test with M. morganii GC 4531, in the test with P. aeruginosa GC 2214, in the test on P. aeruginosa GC 4532, with P. rettgeri GC 4530, with S. aureus GC 1131 and with S. aureus GC 2216 was >32 mg/L in each case. The “Antimicrobial Activity (MIC)” value in the test on S. aureus GC 4536 and with S. marcescens GC 4077 was >32 mg/L in each case.
In the case of `COC1C(OC(C(NCCCNC(=O)C(NC(=O)C(NC(=O)NC(C(=O)O)C(C)C)C2CCNC(=N)N2)C(O)C(C)C)C(=O)O)C2OC(n3ccc(=O)[nH]c3=O)C(O)C2O)OC(CN)C1O` [AA-896-C1, 5-O-[5-Amino-5-deoxy-2-O-methyl-β-D-ribofuranosyl]-6-[[3-[2-[2-[[(1-carboxy-2-methyl-propyl)carbamoyl]amino]-2-(hexahydro-2-iminopyrimidin-4-yl)acetamido]-3-hydroxy-4-methylpentanamido]propyl]amino]-1,6-dideoxy-1-(3,4-dihydro-2,4-dioxopyrimidin-1(2H)-yl)-β-D-heptofuranuronic acid], the “Antimicrobial Activity (MIC)” value was >32 mg/L in the test with CNS GC 4537; >32 mg/L in the test on CNS GC 4538; >32 mg/L in the test with CNS GC 4547; 32 mg/L in the test with E. cloacae GC 3783; 32 mg/L in the test on E. coli GC 2203; 32 mg/L in the test on E. coli GC 3226. Further, the “Antimicrobial Activity (MIC)” value was >32 mg/L with E. coli GC 4559; 1 mg/L in the test on E. coli GC 4560; >32 mg/L in the test on E. faecalis GC 242; >32 mg/L in the test with E. faecalis GC 4555; >32 mg/L in the test on E. faecalis GC 842; >32 mg/L with K. pneumoniae GC 4534. The “Antimicrobial Activity (MIC)” value with M. morganii GC 4531 was >32 mg/L; in the test on P. aeruginosa GC 2214 it was 32 mg/L; in the test with P. aeruginosa GC 4532, >32 mg/L; in the test with P. rettgeri GC 4530, >32 mg/L; with S. aureus GC 1131, >32 mg/L; in the test with S. aureus GC 2216, >32 mg/L. Besides, the “Antimicrobial Activity (MIC)” value with S. aureus GC 4536 and in the test with S. marcescens GC 4077 was >32 mg/L in each case.
As for `CC(C)CC(NC(=O)C(NC(=O)NC(C(=O)O)C(C)C)C1CCNC(=N)N1)C(=O)NCCCNC(C(=O)O)C(OC1OC(CN)C(O)C1O)C1OC(n2ccc(=O)[nH]c2=O)C(O)C1O` [AA-896-D2, 5-O-[5-Amino-5-deoxy-β-D-ribofuranosyl]-6-[[3-[2-[2-[[(1-carboxy-2-methylpropyl)-carbamoyl]amino]-2-(hexahydro-2-iminopyrimidin-4-yl)acetamido]-4-methylpentanamido]-propyl]amino]-1,6-dideoxy-1-(3,4-dihydro-2,4-dioxopyrimidin-1(2H)-yl)-β-D-heptofuran-uronic acid], the “Antimicrobial Activity (MIC)” value in the test on CNS GC 4537 was >32 mg/L; in the test on CNS GC 4538 it was >32 mg/L; with CNS GC 4547, >32 mg/L; with E. cloacae GC 3783, 16 mg/L; in the test with E. coli GC 2203 it was 16 mg/L; in the test on E. coli GC 3226, 16 mg/L. Further, the “Antimicrobial Activity (MIC)” value in the test with E. coli GC 4559 is 32 mg/L; in the test on E. coli GC 4560, 0.25 mg/L; in the test on E. faecalis GC 242 it was >32 mg/L; with E. faecalis GC 4555, >32 mg/L; in the test on E. faecalis GC 842, >32 mg/L; in the test on K. pneumoniae GC 4534, >32 mg/L. For the same molecule, the “Antimicrobial Activity (MIC)” value in the test with M. morganii GC 4531 is >32 mg/L; in the test with P. aeruginosa GC 2214, 32 mg/L; in the test with P. aeruginosa GC 4532, 32 mg/L; with P. rettgeri GC 4530 it was >32 mg/L; with S. aureus GC 1131 it was >32 mg/L; in the test on S. aureus GC 2216, >32 mg/L. For the same molecule, the “Antimicrobial Activity (MIC)” value with S. aureus GC 4536 and in the test with S. marcescens GC 4077 was >32 mg/L each time.
